Experiment [1] deals with SARS-CoV-2 variant B.1.617.2 (delta). The format is cell-based.
The test system of experiment [2] is SARS-CoV-2 variant BA.1 (omicron). The format is cell-based.

On to `CSc1ccc(-n2cnc3ccc(-c4nnc(CCc5cccc(C#N)c5)o4)cc32)cc1` [P-0717632], for which the “effect on viral titres, B.1.617.2” value in experiment [1] was “reduced intracellular viral titres”. For the same compound, the “effect on viral titres, BA.1” value in experiment [2] is “reduced intracellular viral titres”.

These data come from article PMC9742639, “Inhibition of glycogen synthase kinase-3-beta (GSK3β) blocks nucleocapsid phosphorylation and SARS-CoV-2 replication” (Molecular Biomedicine, 2022).
